In general, IC50 refers to the concentration that inhibits the measured activity by half.

The text below walks through data of patent US20170102375A1, “METHODS FOR DETERMINING THE EFFECTS OF COMPOUNDS ON JAK/STAT ACTIVITY” (Nodality, Inc., priority 2009, published 2017).

The test system of one assay is p-STAT5 in T cells. As to the kind of experiment: multiparameter phosphoflow, p-STAT5 in T cells gated from 90% whole blood. The format is cell-based.
Assay [1] concerns IL-27-induced p-Stat readout. As to the kind of experiment: IL-27-induced JAK/STAT signaling in AML patient cells, phosphoflow p-Stat1, p-Stat3, p-Stat5. Format: cell-based, human. The protocol:
(§1) Cells from three patients were stimulated with the cytokines IL-27 and G-CSF to determine whether these modulators could induce JAK/STAT pathway activation across cells from different AML patient donors. IL-27 has been reported to signal through JAK1, JAK2, and Tyk2, leading to the phosphorylation of Stat1, Stat3, and Stat5. G-CSF has been reported to signal through JAK2 and Tyk2 and leads to the phosphorylation of Stat3. […] One hour after incubation, the cells were stimulated with IL-27 and G-CSF. After stimulation cell signaling was measured by multiparametric phosphoflow cytometry to assess p-Stat1, p-Stat3 and p-Stat5 levels.
(§2) The samples were gated on cell populations. Incubation with fluorochrome-conjugated monoclonal antibodies that recognize lineage specific epitopes on the cell surface delineated at least 3 cell subpopulations in patient samples. […] Three cell subsets were examined: (1) CD34−/CD117med, (2) CD34+/CD117med, (3) CD34−/CD117−. “CD117” in FIG. 18 is the same as “ckit” in FIG. 19. “Med” indicates a medium amount of expression with respect to other cell subsets that express more or less CD117.

The subject of assay [2] is G-CSF-induced p-Stat readout. The assay is described as follows: G-CSF-induced JAK/STAT signaling in AML patient cells, phosphoflow p-Stat1, p-Stat3, p-Stat5. The format is cell-based, human. The protocol:
as §1, §2

The next assay has as its system pAKT (S473). The assay is described as follows: phosphoflow, evoked pAKT (S473) in B-cells gated from PBMC sample, IC50 from sub-sampled cells. Format: cell-based. To be noted: repeated 100 times, read-out: log10(IC50) (converted). The protocol:
In some embodiments, the invention provides tools for making robust measurements of very small subpopulations of cells. […] The IC50 for […] was calculated using pAKT measurements from 3,000 cells. […] The median fluorescence index (MFI) was then computed only from these cells and used to estimate the IC50 value. This process was repeated 100 times at each sampling level to generate a list of IC50 values. If a small number of cells is sufficiently representative of the larger population, all the IC50 values are expected to be similar to each other, and therefore the 95% confidence interval will remain small. […] For samples of 40 cells and fewer, the IC50 became increasingly inconsistent. Depending on experimental conditions, such as cell type, nodes assayed, the percentage of cells that respond to the modulator, detection methods, and the strength of the signal, the minimal number of cells needed to obtain statistically relevant measurements may vary.

The test system of a further assay is p-ERK in monocytes. As to the kind of experiment: multiparameter phosphoflow, p-ERK stimulated by GM-CSF in monocytes from PBMCs. Format: cell-based. To be noted: treated PBMCs, off-target ERK/MAPK (FIG. 16). The procedure:
(§3) (See FIG. 11; Table 7). […] The samples are gated on cell populations.
(§4) As shown in FIGS. 16-17, the methods of the invention can also be used to identify off-target effects of drug treatment. Muliparameter phosphoflow is used to detect the effects of compounds selected from the list in Table 8 on signaling pathways other than JAK/STAT. In FIG. 16, when PBMCs are treated with the JAK/STAT inhibitor Pyridone 6 (“Jak Inhibitor I,” Calbiochem), pERK levels are reduced in monocytes. […] Thus, the methods of the invention can identify both inhibition and induction of off-target signaling pathways, in this example, the ERK/MAPK pathway. The methods of the invention can also be used to identify off-target effects of JAK/STAT inhibitors on other pathways.

Another assay has as its system p-ERK in B cells. The assay is described as follows: multiparameter phosphoflow, p-ERK stimulated by CD40L in B-cells from PBMCs. The format is cell-based. Conditions: treated PBMCs, off-target ERK/MAPK (FIG. 16). The protocol:
as §3, §4

The test system of another assay is pNFkB65. The assay is described as follows: multiparameter phosphoflow, NFkB signaling in stimulated B cells. The format is cell-based. To be noted: stimulated B cells (FIG. 17). The procedure:
as §4

The subject of a further assay is CML patients. Conditions: CML patients treated at the early stages of the disease; cited from earlier work.

Like-named read-outs stand apart in the source and are kept apart here.

Experimental for p-STAT5 in T cells: A dose series of treatments is performed for each compound, ranging from doses as low as no compound, up to doses in the ranges of 1×10° nM, 1×10^1 nM, 1×10^2 nM, 1×10^3 nM, and 1×10^4 nM. Cell signaling is measured by multiparametric phosphoflow cytometry to assess p-Stat3, pERK, and p-Stat5 levels. The samples are gated on cell populations. This method may be used, for example, to measure JAK/STAT signaling activity in gated T cells based on levels p-Stat5 (See FIG. 12). The relationship between dosing and signaling activity can be used to calculate the IC50 for each compound (See, e.g. FIG. 12).

Regarding `C[C@@H]1CCN(C(=O)CC#N)C[C@@H]1N(C)c1ncnc2[nH]ccc12` [CP-690550], the “potency in whole blood” value in the assay with p-STAT5 in T cells (90% whole blood gated on T cells) was “retains a high potency”. Also, the “inhibition of IL-27-induced p-Stat readout” value in assay [1] (333 nM, 1 h pre-incubation, cells of two AML patient donors with IL-27-induced signaling) is reported as “completely”. Besides, the “effect in cells from the third patient” value in assay [1] (AML patient cells in which IL-27 and G-CSF induced no signaling response) is recorded as “no effect”. The “inhibition of basal phosphorylation levels in the p-Stat readout” value in assay [1] (AML patient cells, IL-27 experiment (FIG. 20)) was “no inhibition”; in assay [2] (AML patient cells, G-CSF experiment (FIG. 21)), “no inhibition”. Moreover, the “inhibition of G-CSF-induced p-Stat readout” value in assay [2] (3333 nM, 1 h pre-incubation, cells of two AML patient donors with G-CSF-induced signaling) is recorded as “completely”.

For `O=c1cc(N2CCOCC2)oc2c(-c3ccccc3)cccc12` [LY940002], the IC50 is 4.79 nM with pAKT (S473) (simulation: 10 cells sampled); 79.4 nM in the assay on pAKT (S473) (simulation: 20 cells sampled); 61.7 nM in the assay with pAKT (S473) (simulation: 40 cells sampled); 479 nM with pAKT (S473) (simulation: 80 cells sampled); 479 nM in the assay with pAKT (S473) (simulation: 160 cells sampled); 490 nM with pAKT (S473) (simulation: 320 cells sampled). The IC50 with pAKT (S473) (simulation: 640 cells sampled) was 490 nM; with pAKT (S473) (simulation: 1280 cells sampled), 479 nM; with pAKT (S473) (simulation: 2560 cells sampled) it was 490 nM; in the assay with pAKT (S473) (simulation: MFI from 5 cells sampled from 3,000 cell data set), 0.302 nM.

For `CC(C)(C)c1nc2c3cc[nH]c(=O)c3c3cc(F)ccc3c2[nH]1` [Pyridone 6], the “decrease of potency in whole blood versus PBMCs” value with p-STAT5 in T cells (90% whole blood gated on T cells vs stimulated PBMCs) stood at 70 fold. In addition, the “effect on pERK levels in monocytes” value in the assay with p-ERK in monocytes is “reduced”. Besides, in the assay with p-ERK in B cells, the “effect on pERK levels in B cells” value is reported as “does not reduce”.

On to `CCOC(=O)c1cn(-c2c(F)c(F)c(C#N)c(F)c2F)c2c(F)c(F)c(F)cc2c1=O` [Stat3 Inhibitor VII], for which, in the assay on pNFkB65, the “effect on NFkB signaling, levels of pNFkB65” value is on record as “inhibits NFkB signaling”.

For the compound `CC(C)(O)/C=C/C(=O)[C@](C)(O)[C@H]1[C@H](O)C[C@@]2(C)[C@@H]3CC=C4[C@@H](C=C(O)C(=O)C4(C)C)[C@]3(C)C(=O)C[C@]12C` [cucurbitacin I], the “effect on pERK levels in monocytes” value in the assay on p-ERK in monocytes is listed as “increased”. Also, the “effect on pERK levels in B cells” value in the assay on p-ERK in B cells was “increased”.

`Cc1ccc(NC(=O)c2ccc(CN3CCN(C)CC3)cc2)cc1Nc1nccc(-c2cccnc2)n1` [imatinib]: the “complete remission, patients” value with CML patients was 97%.
